This is an account of results in PubChem BioAssay AID623998 (Broad Institute, 2012).

In this experiment the target is Glycogen synthase kinase-3 beta (Homo sapiens) (UniProt P49841). Kind of experiment: GSK3beta kinase inhibitors, SAR follow-up, biochemical, ADP-Glo luminescence, dry powder samples (AID 623998). Particulars: GSK3beta ADP-Glo luminescence kinase assay, 60 min; for activity, negative = inhibition: at 46 µM (top of the series).

Values joined by “and” are separate entries in the source; they are usually repeats but may differ in a detail not shown here. Equal entries are not always repeated. Inconclusive results are not listed. Active and inactive are the calls of the source.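 The calls were made as follows: active = compound whose fitted half-maximal dose is at most twice its top tested dose in every repeat; inconclusive = mixed calls across repeats, weak flat response, or unreliable curve fit; inactive = all repeats flat, too weak, or wrong direction.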

Chain of Glycogen synthase kinase-3 beta (Homo sapiens) (P49841 whole entry, looked up): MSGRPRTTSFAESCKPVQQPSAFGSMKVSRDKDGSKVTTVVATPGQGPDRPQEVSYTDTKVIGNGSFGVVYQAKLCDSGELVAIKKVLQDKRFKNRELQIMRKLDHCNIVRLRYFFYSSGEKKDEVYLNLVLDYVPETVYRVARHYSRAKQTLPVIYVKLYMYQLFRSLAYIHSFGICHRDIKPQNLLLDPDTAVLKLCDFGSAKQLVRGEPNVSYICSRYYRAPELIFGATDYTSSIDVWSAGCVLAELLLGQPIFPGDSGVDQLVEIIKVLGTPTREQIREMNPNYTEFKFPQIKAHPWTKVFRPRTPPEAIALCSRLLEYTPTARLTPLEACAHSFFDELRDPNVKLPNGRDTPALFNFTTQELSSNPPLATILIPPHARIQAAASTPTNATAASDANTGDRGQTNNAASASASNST

Broadly, the AC50 is the concentration at which the activity in the assay is half-maximal. As to `CSc1ccccc1C1C2=C(CC(C)(C)CC2=O)Nc2n[nH]c(C)c21` (configuration not stated), the half-maximal activity concentration (AC50) was 32.4 nM. The same measure, in the same setting: next, `CC1(C)CC(=O)C2=C(C1)Nc1n[nH]c(C(F)(F)F)c1C2c1cc(F)ccc1C(F)(F)F` (configuration not stated): 51.3 nM; `Cc1[nH]nc2c1C(c1ccc(Br)cn1)C1=C(CC(C)(C)CC1=O)N2` (configuration not stated): 4990 nM; `Cc1[nH]nc2c1C(c1ccn[nH]1)C1=C(CC(C)(C)CC1=O)N2` (configuration not stated): 1880 nM. For the compound `O=S(=O)(Nc1ccccn1)c1ccc(N=Cc2c(O)[nH]c3ccc4ncsc4c23)cc1`, the AC50 is 807 nM. As for `Cc1[nH]nc2c1C(c1ccccc1C(F)(F)F)C1=C(CC(C)(C)CC1=O)N2` (configuration not stated), the AC50 is 42.5 nM. As to `COc1ccccc1C1C2=C(CC(C)(C)CC2=O)Nc2n[nH]c(C(F)(F)F)c21` (configuration not stated), the half-maximal activity concentration (AC50) was 13.2 nM and 128 nM. On the same count and under the same terms, next, `CC1(C)CC(=O)/C(=C\c2ccccc2C(F)(F)F)C(=Nc2cc(C(F)(F)F)[nH]n2)C1`: 3110 nM; `CC1(C)CC(=O)/C(=C\c2cccc(F)c2C(F)(F)F)C(=Nc2cc(C(F)(F)F)[nH]n2)C1`: 2630 nM. Consider `CC1(C)CC(=O)C2=C(C1)Nc1n[nH]c(C(F)(F)F)c1C2c1ccccc1F` (configuration not stated), for which the concentration at half-maximal activity (AC50) is 184 nM. Turning to `COc1ccc(-c2nn(-c3ccccc3)cc2C(=O)O)cc1`, the “activity, negative = inhibition” value was “inactive”. As for `Cc1[nH]nc2c1C(c1ccc(C#N)cc1)C1=C(CC(C)(C)CC1=O)N2` (configuration not stated), the concentration at half-maximal activity (AC50) was 10400 nM.

Turning to `COc1ccccc1C1C2=C(CCCC2=O)Nc2n[nH]c(C)c21` (configuration not stated), the concentration at half-maximal activity (AC50) was 3420 nM. With `Cc1[nH]nc2c1[C@H](c1cccs1)C1=C(CC(C)(C)CC1=O)N2`, the AC50 was 11600 nM. In the case of `O/N=C/c1cn(-c2ccccc2)nc1-c1ccccc1`, the AC50 is 2930 nM. Turning to `Cc1ccc(-c2nn(-c3ccccc3)cc2/C=N/O)cc1`, the AC50 is 313 nM. As to `CC1(C)CC(=O)C2=C(C1)Nc1n[nH]c(C(F)(F)F)c1C2c1cc(F)ccc1OC(F)(F)F` (configuration not stated), the AC50 was 403 nM. Consider `Cc1[nH]nc2c1C(c1ccsc1)C1=C(CC(C)(C)CC1=O)N2` (configuration not stated), for which the AC50 is 1370 nM. For `COc1ccccc1C1C2=C(CCC(C)(C)C2=O)Nc2n[nH]c(C)c21` (configuration not stated), the AC50 is 515 nM. Consider `CC(C)COc1ccc(-c2nn(-c3ccccc3)cc2/C=N/O)cc1`, for which the AC50 is 3080 nM. Consider `Cc1[nH]nc2nc3c(c(-c4cccs4)c12)C(=O)CC(C)(C)C3`, for which the half-maximal activity concentration (AC50) is 28100 nM. Consider `O/N=C/c1cn(-c2ccccc2)nc1-c1ccc(F)cc1`, for which the AC50 is 440 nM.

For the compound `Cc1[nH]nc2c1C(C)(c1ccccc1)C1=C(CC(C)(C)CC1=O)N2` (configuration not stated), the AC50 is 308 nM. Consider `Cc1[nH]nc2c1[C@@H](c1ccccc1C(F)(F)F)C1=C(CC(C)(C)CC1=O)N2`, for which the AC50 is 37 nM. For `Cc1ccc(C2C3=C(CC(C)(C)CC3=O)Nc3n[nH]c(C)c32)cc1` (configuration not stated), the AC50 is 2160 nM. Same read-out and setting: the same measure for `COc1ccccc1C1C2=C(CC3(CCCCC3)CC2=O)Nc2n[nH]c(C)c21` (configuration not stated): 278 nM; for `CC1(C)CC(=O)C2=C(C1)Nc1n[nH]c(C(F)(F)F)c1C2c1cc(F)ccc1F` (configuration not stated): 451 nM; for `Cc1[nH]nc2c1C(c1ccccc1Br)C1=C(CC(C)(C)CC1=O)N2` (configuration not stated): 180 nM.

On to `Cc1[nH]nc2c1C(c1ccc3c(c1)OCO3)C1=C(CC(C)(C)CC1=O)N2` (configuration not stated), for which the half-maximal activity concentration (AC50) was 4610 nM. Consider `CN(C)Cc1cn(-c2ccccc2)nc1-c1ccccc1`, for which the “activity, negative = inhibition” value was “inactive”. On to `Cc1[nH]nc2c1[C@H](c1ccccc1C(F)(F)F)C1=C(CC(C)(C)CC1=O)N2`, for which the AC50 is 5570 nM. Regarding `Cc1[nH]nc2c1C(c1cccc3nonc13)C1=C(CC(C)(C)CC1=O)N2` (configuration not stated), the AC50 was 50 nM. `O/N=C/c1cn(-c2ccccc2)nc1-c1ccc(Cl)cc1`: the concentration at half-maximal activity (AC50) is 45.2 nM. As to `Cc1[nH]nc2c1C(c1ccccc1C#N)C1=C(CC(C)(C)CC1=O)N2` (configuration not stated), the AC50 is 134 nM.

On to `COc1ccccc1[C@H]1C2=C(CC(C)(C)CC2=O)Nc2n[nH]c(C(F)(F)F)c21`, for which the AC50 was 1590 nM. `COc1ccccc1/C=C1\C(=O)CC(C)(C)CC1=Nc1cc(C(F)(F)F)[nH]n1`: the AC50 was 7500 nM. Take `Cc1[nH]nc2c1C(c1ccc(F)cc1Cl)C1=C(CC(C)(C)CC1=O)N2` (configuration not stated): the AC50 is 2290 nM. The same measure, in the same setting: next, `Cc1[nH]nc2c1C(c1cccc(Cl)c1)C1=C(CC(C)(C)CC1=O)N2` (configuration not stated): 919 nM; `COc1cccc(C2C3=C(CC(C)(C)CC3=O)Nc3n[nH]c(C)c32)c1` (configuration not stated): 1160 nM; `COc1ccc(-c2nn(-c3ccccc3)cc2/C=N/O)cc1OC`: 617 nM.

On to `Cc1[nH]nc2c1C(C)C1=C(CC(C)(C)CC1=O)N2` (configuration not stated), for which the AC50 was 534 nM. As to `Cc1cccc(C2C3=C(CC(C)(C)CC3=O)Nc3n[nH]c(C)c32)c1` (configuration not stated), the AC50 was 614 nM. For `Cc1[nH]nc2c1C(c1ccccn1)C1=C(CC(C)(C)CC1=O)N2` (configuration not stated), the half-maximal activity concentration (AC50) was 1020 nM.

For `COc1ccccc1C1C2=C(CC(C)(C)CC2=O)Nc2n[nH]c(C)c21` (configuration not stated), the AC50 is 124 nM. Same read-out and setting: the same measure for `Cc1[nH]nc2c1C(c1cccs1)C1C(=O)CC(C)(C)CC1=N2` (configuration not stated): 627 nM; for `Cc1[nH]nc2c1C(c1ccc(Cl)s1)C1=C(CC(C)(C)CC1=O)N2` (configuration not stated): 1140 nM.

For the compound `Cc1[nH]nc2c1C(c1cccc(C#N)c1)C1=C(CC(C)(C)CC1=O)N2` (configuration not stated), the AC50 was 52.3 nM. For `Cc1[nH]nc2c1C(c1ccc(Cl)cc1)C1=C(CC(C)(C)CC1=O)N2` (configuration not stated), the AC50 was 4440 nM. On to `COc1ccccc1C1C2=C(CC(C)(C)CC2=O)Nc2n[nH]c(C(C)(C)C)c21` (configuration not stated), for which the AC50 was 834 nM.

Take `CC1(C)CC(=O)C2=C(C1)Nc1n[nH]c(C(F)(F)F)c1C2c1c(F)cccc1F` (configuration not stated): the half-maximal activity concentration (AC50) is 87.5 nM. For `O/N=C/c1cn(-c2ccccc2)nc1-c1ccc2c(c1)OCCO2`, the AC50 is 577 nM. Turning to `Cc1ccccc1C1C2=C(CC(C)(C)CC2=O)Nc2n[nH]c(C)c21` (configuration not stated), the AC50 was 455 nM. Take `COc1cccc(-c2nn(-c3ccccc3)cc2/C=N/O)c1`: the half-maximal activity concentration (AC50) was 1760 nM. As for `COc1ccccc1C1C2=C(CC(C)(C)CC2=O)Nc2[nH]ncc21` (configuration not stated), the concentration at half-maximal activity (AC50) was 122 nM. Still for that read-out and setting: next, `Cc1[nH]nc2c1C(c1cccc(C(F)(F)F)c1)C1=C(CC(C)(C)CC1=O)N2` (configuration not stated): 199 nM. As for `CC(C)c1ccc(-c2nn(-c3ccccc3)cc2/C=N/O)cc1`, the AC50 was 737 nM. In the case of `COc1ccccc1C1C2=C(CC(C)(C)CC2=O)Nc2ccccc21` (configuration not stated), the “activity, negative = inhibition” value is “inactive”. As for `Cc1[nH]nc2c1C(C1CC1)C1=C(CC(C)(C)CC1=O)N2` (configuration not stated), the AC50 was 3050 nM. As to `COc1ccccc1C1C2=C(CC(C)(C)CC2=O)Nc2n[nH]c(-c3ccccc3)c21` (configuration not stated), the AC50 was 1550 nM. On to `Cc1[nH]nc2c1C(c1ccc(C(F)(F)F)cc1)C1=C(CC(C)(C)CC1=O)N2` (configuration not stated), for which the AC50 was 9290 nM. Consider `Cc1[nH]nc2c1C(c1ccccc1Cl)C1=C(CC(C)(C)CC1=O)N2` (configuration not stated), for which the AC50 was 300 nM. Regarding `COc1ccccc1C1C(C(C)=O)=C(C)Nc2n[nH]c(C)c21` (configuration not stated), the AC50 is 3000 nM. For the compound `Cc1[nH]nc2c1C(c1ccc(F)cc1)C1=C(CC(C)(C)CC1=O)N2` (configuration not stated), the AC50 was 2960 nM. Take `Cc1[nH]nc2c1C(c1cccc(F)c1)C1=C(CC(C)(C)CC1=O)N2` (configuration not stated): the half-maximal activity concentration (AC50) was 540 nM. Consider `COc1ccccc1[C@@H]1C2=C(CC(C)(C)CC2=O)Nc2n[nH]c(C(F)(F)F)c21`, for which the AC50 was 23.8 nM.

For the compound `CC1(C)CC(=O)C2=C(C1)Nc1n[nH]c(C(F)(F)F)c1C2c1ccc(F)cc1C(F)(F)F` (configuration not stated), the half-maximal activity concentration (AC50) was 173 nM. For `Cc1[nH]nc2c1C(c1cccnc1)C1=C(CC(C)(C)CC1=O)N2` (configuration not stated), the AC50 was 408 nM. The same measure, in the same setting: next, `COc1ccccc1C1C2=C(CC(C)(C)CC2=O)Nc2n[nH]c(C(C)C)c21` (configuration not stated): 415 nM. For `Cc1[nH]nc2c1[C@@H](c1cccs1)C1=C(CC(C)(C)CC1=O)N2`, the AC50 was 1910 nM. Regarding `CC1(C)CC(=O)C2=C(C1)Nc1n[nH]c(C(F)(F)F)c1C2c1ccccc1` (configuration not stated), the half-maximal activity concentration (AC50) is 35.7 nM. As for `CCc1[nH]nc2c1C(c1ccccc1OC)C1=C(CC(C)(C)CC1=O)N2` (configuration not stated), the AC50 is 83.3 nM. With `COc1ccc(C2C3=C(CC(C)(C)CC3=O)Nc3n[nH]c(C)c32)cc1` (configuration not stated), the AC50 was 14700 nM.
